From patent US20110269811A1, “INHIBITORS OF SEMICARBAZIDE-SENSITIVE AMINE OXIDASE (SSAO) AND VAP-1 MEDIATED ADHESION USEFUL FOR TREATMENT AND PREVENTION OF DISEASES” (priority 2006, published 2011) come the findings set out here.

Each structure is given as a SMILES string.

Data set [1] has as its target T1, CXCR2 (h) (IL-8B) (Homo sapiens, UniProt P25025).
T1 construct: expressed in transfected cells; host or cells: HEK-293 cells
Description: Receptor binding screen, [^125I]IL-8. The settings on record: 10 uM Concentration of Compound I-1-Z; read-out: Mean Value, percent inhibition of control specific binding: CXCR2 (h) (IL-8B).

In data set [2] the target is T2, CCKB (h) (CCK2) (Homo sapiens, UniProt P32239).
T2 construct: expressed in transfected cells; host or cells: CHO cells
T2 sequence (P32239 whole entry): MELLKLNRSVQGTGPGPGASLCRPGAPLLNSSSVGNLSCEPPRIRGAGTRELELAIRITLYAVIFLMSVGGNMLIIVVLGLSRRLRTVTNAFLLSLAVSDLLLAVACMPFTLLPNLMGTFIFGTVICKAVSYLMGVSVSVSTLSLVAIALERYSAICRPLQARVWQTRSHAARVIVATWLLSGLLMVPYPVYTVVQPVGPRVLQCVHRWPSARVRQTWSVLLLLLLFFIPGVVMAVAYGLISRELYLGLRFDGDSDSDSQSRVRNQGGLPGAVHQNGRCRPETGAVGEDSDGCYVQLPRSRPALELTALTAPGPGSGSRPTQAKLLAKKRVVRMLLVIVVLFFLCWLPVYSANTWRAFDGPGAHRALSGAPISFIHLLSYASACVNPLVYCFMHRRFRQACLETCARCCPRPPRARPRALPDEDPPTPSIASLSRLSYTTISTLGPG
As to the kind of experiment: Receptor binding screen, [^125I]CCK-8. The conditions noted are these: 10 uM Concentration of Compound I-1-Z; read-out: Mean Value, percent inhibition of control specific binding: CCKB (h) (CCK2).

For data set [3], the target named is T3, 5-HT1B (Rattus norvegicus, UniProt P28564).
T3 construct: rat cerebral cortex; from tissue; host or cells: rat cerebral cortex
T3 sequence (P28564 whole entry): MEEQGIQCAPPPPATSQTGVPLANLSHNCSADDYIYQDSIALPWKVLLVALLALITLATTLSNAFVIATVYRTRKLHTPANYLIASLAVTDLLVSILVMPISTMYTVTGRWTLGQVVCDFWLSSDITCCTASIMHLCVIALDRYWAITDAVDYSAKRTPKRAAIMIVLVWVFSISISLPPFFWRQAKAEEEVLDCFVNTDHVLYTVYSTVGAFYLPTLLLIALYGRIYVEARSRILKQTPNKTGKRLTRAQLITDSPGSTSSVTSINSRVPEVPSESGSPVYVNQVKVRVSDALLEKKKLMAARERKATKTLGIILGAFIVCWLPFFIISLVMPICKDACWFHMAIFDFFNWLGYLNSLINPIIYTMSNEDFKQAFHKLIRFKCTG
As to the kind of experiment: Receptor binding screen, [^125I]CYP. The settings on record: probe [125I]CYP (radioligand), 10 uM Concentration of Compound I-1-Z, read-out: Mean Value, percent inhibition of control specific binding: 5-HT1B.

Data set [4] addresses T4, β1 (h) (Homo sapiens, UniProt P08588).
T4 construct: expressed in transfected cells; host or cells: HEK-293 cells
Description: Receptor binding screen, [^3H](−)CGP 12177. The settings on record: 10 uM Concentration of Compound I-1-Z; read-out: Mean Value, percent inhibition of control specific binding: β1 (h).

For data set [5], the target named is T5, ORL1 (h) (NOP) (Homo sapiens, UniProt P41146).
T5 construct: expressed in transfected cells; host or cells: HEK-293 cells
T5 sequence (P41146 whole entry): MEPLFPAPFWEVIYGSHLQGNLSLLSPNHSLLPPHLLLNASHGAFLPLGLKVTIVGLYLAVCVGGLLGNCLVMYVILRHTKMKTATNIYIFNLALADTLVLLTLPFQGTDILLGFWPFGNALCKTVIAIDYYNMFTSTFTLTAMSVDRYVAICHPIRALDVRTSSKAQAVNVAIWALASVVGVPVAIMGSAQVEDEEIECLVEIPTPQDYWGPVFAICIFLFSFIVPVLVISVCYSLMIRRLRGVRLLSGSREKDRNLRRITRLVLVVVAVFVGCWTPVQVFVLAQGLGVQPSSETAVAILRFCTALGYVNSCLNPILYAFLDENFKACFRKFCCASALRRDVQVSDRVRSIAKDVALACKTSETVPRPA
As to the kind of experiment: Receptor binding screen, [^3H]nociceptin. The conditions noted are these: 10 uM Concentration of Compound I-1-Z; read-out: Mean Value, percent inhibition of control specific binding: ORL1 (h) (NOP). Here is the method: (§1) For Table 4 below, the specific ligand binding to the receptors is defined as the difference between the total binding and the nonspecific binding determined in the presence of an excess of unlabelled ligand. The results are expressed as a percent inhibition of control specific binding obtained in the presence of Compound I-1-Z. The IC50 values (concentration causing a half-maximal inhibition of control specific binding) and Hill coefficients (nH) were determined by non-linear regression analysis of the competition curves using Hill equation curve fitting. The inhibition constants (Ki) were calculated from the Cheng Prusoff equation (Ki=IC50/(1+(L/KD)), where L=concentration of radioligand in the assay, and KD=affinity of the radioligand for the receptor). In each experiment, the respective reference compound was tested concurrently with Compound I-1-Z in order to assess the assay suitability.

Data set [6] relates to α1 (non-selective). Description: Receptor binding screen, [^3H]prazosin. The arrangement: species or system rat. The conditions noted are these: 10 uM Concentration of Compound I-1-Z. Here is the method:
as §1

In data set [7] the test system is PDGF. As to the kind of experiment: Receptor binding screen, [^125I]PDGF BB, Balb/c 3T3 cells. The settings on record: 10 uM Concentration of Compound I-1-Z.
The target in data set [8] is T6, A3 (h) (Homo sapiens, UniProt P0DMS8).
T6 construct: expressed in transfected cells; host or cells: HEK-293 cells
T6 sequence (P0DMS8 whole entry): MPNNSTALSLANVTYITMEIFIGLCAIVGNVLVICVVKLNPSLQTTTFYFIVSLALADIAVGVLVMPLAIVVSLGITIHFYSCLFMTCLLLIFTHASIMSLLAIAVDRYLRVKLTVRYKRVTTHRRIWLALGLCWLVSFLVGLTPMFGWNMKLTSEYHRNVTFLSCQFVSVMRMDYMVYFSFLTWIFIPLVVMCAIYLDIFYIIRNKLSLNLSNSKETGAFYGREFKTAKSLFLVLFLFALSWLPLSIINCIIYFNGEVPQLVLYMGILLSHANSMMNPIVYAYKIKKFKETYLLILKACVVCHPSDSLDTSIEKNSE
As to the kind of experiment: Receptor binding screen, [^125I]AB-MECA. The conditions noted are these: 10 uM Concentration of Compound I-1-Z; read-out: Mean Value, percent inhibition of control specific binding: A3 (h).

Data set [9] addresses T7, human diamine oxidase (DAO) (Homo sapiens, UniProt P19801).
T7 construct: made in house; host or cells: CHO cells (Flp-In, pcDNA5/FRT); serum-free conditioned medium used directly
Description: Inhibition of diamine oxidase, AMPLEX Red assay, putrescine substrate. The settings on record: recombinant DAO expressed in CHO cells. The data set is classed as biochemical.
Description: Compounds of the invention can be tested for their inhibitory activity against diamine oxidase (DAO). Recombinant DAO was expressed in CHO cells using standard molecular biology methods as described herein. […] The serum containing media was removed and the cells were switched to CHO SFM serum free media for 48 hours. […] The media was collected and used directly as a source of diamine oxidase for enzyme analysis.

For data set [10], the target named is T8, M5 (h) (Homo sapiens, UniProt P08912).
T8 construct: expressed in transfected cells; host or cells: CHO cells
As to the kind of experiment: Receptor binding screen, [^3H]4-DAMP. The conditions noted are these: 10 uM Concentration of Compound I-1-Z; read-out: Mean Value, percent inhibition of control specific binding: M5 (h).

For data set [11], the target named is T9, H2 (h) (Homo sapiens, UniProt P25021).
T9 construct: expressed in transfected cells; host or cells: CHO cells
T9 sequence (P25021 whole entry): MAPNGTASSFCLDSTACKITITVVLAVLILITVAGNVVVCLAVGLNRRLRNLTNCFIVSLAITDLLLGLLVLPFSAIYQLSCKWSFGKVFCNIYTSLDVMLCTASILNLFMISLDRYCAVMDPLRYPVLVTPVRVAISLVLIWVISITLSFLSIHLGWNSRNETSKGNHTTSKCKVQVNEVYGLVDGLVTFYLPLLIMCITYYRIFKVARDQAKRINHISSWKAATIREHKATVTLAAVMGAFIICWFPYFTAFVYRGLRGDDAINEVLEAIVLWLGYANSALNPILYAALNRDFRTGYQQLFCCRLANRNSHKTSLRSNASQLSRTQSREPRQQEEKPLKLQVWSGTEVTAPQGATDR
As to the kind of experiment: Receptor binding screen, [^125I]APT. The conditions noted are these: 10 uM Concentration of Compound I-1-Z; read-out: Mean Value, percent inhibition of control specific binding: H2 (h).

The target in data set [12] is T10, AT2 (h) (Homo sapiens, UniProt P50052).
T10 construct: expressed in transfected cells; host or cells: Hela cells
Description: Receptor binding screen, [^125I]CGP 42112A. The conditions noted are these: 10 uM Concentration of Compound I-1-Z; read-out: Mean Value, percent inhibition of control specific binding: AT2 (h).

Data set [13] deals with T11, D5 (h) (Homo sapiens, UniProt P21918).
T11 construct: expressed in transfected cells; host or cells: GH4 cells
T11 sequence (P21918 whole entry): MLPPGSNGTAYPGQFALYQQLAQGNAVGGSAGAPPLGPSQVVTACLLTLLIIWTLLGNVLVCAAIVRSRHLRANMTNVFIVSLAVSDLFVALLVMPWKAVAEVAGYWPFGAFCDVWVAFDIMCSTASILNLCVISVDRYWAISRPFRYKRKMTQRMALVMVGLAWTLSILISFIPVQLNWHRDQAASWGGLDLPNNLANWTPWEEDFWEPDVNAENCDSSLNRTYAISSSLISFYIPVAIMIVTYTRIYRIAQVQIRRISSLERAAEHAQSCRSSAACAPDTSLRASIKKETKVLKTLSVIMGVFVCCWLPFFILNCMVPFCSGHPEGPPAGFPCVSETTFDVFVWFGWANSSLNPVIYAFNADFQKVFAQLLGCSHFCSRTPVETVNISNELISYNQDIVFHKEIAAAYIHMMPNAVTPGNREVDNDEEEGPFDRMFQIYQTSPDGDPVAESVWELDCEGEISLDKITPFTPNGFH
Description: Receptor binding screen, [^3H]SCH 23390. The conditions noted are these: 10 uM Concentration of Compound I-1-Z; read-out: Mean Value, percent inhibition of control specific binding: D5 (h).

For data set [14], the system named is collagen-induced arthritis. Description: Collagen-induced arthritis by direct injection of Type II collagen. Format: in vivo, B10RIII mice. The settings on record: FIG. 15. Here is the method: Collagen-induced arthritis can also be induced by direct injection of collagen. Groups of 15 male B10RIII mice were injected intradermally with Type II collagen in Complete Freund Adjuvant (CFA) on days 0 and 15. Mice were dosed p.o. starting from day 0 to day 28 with phosphate buffered saline (PBS), 5 mg/kg compound I-1-Z, 30 mg/kg compound I-1-Z or 0.2 mg/kg dexamethasone. […] Clinical scores were determined daily for each paw based on a scale between 0-5 based on joint erythema and swelling. Statistical analysis was by Student's t-test versus the PBS-treated disease control group.

The target of data set [15] is T12, BZD (peripheral) (Rattus norvegicus, UniProt P16257).
T12 construct: rat heart; from tissue; host or cells: rat heart
As to the kind of experiment: Receptor binding screen, [^3H]PK 11195. The conditions noted are these: 10 uM Concentration of Compound I-1-Z; read-out: Mean Value, percent inhibition of control specific binding: BZD (peripheral).

Data set [16] has as its target T13, NK3 (h) (Homo sapiens, UniProt P29371).
T13 construct: expressed in transfected cells; host or cells: CHO cells
Description: Receptor binding screen, [^3H]SR 142801. The conditions noted are these: 10 uM Concentration of Compound I-1-Z; read-out: Mean Value, percent inhibition of control specific binding: NK3 (h).

Data set [17] concerns the target T14, ETB (h) (Homo sapiens, UniProt P24530).
T14 construct: expressed in transfected cells; host or cells: CHO cells
Description: Receptor binding screen, [^125I]endothelin-1. The settings on record: 10 uM Concentration of Compound I-1-Z; read-out: Mean Value, percent inhibition of control specific binding: ETB (h).

T14 sequence (P24530 27-442): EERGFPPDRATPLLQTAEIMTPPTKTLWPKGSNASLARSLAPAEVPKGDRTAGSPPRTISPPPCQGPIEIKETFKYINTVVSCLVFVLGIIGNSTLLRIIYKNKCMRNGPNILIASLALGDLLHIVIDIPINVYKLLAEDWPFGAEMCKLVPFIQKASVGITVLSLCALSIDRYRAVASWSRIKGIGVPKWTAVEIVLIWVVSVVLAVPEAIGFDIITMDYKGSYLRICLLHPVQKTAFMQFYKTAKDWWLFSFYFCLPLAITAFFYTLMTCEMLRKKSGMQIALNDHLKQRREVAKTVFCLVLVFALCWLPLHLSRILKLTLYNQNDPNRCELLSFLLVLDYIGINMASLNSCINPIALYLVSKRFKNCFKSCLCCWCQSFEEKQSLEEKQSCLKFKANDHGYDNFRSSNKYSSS
T13 sequence (P29371 whole entry): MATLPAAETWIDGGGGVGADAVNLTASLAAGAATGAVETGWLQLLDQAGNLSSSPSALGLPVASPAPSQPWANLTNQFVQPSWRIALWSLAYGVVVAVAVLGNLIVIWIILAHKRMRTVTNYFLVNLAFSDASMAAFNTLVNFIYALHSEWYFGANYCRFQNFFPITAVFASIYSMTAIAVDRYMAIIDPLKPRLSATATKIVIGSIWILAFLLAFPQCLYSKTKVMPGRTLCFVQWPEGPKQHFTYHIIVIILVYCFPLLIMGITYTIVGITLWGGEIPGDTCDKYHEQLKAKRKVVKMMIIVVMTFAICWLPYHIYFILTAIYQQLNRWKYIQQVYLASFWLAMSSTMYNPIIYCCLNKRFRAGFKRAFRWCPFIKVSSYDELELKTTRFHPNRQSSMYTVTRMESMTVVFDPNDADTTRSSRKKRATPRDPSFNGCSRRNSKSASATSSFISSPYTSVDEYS
T1 sequence (P25025 whole entry): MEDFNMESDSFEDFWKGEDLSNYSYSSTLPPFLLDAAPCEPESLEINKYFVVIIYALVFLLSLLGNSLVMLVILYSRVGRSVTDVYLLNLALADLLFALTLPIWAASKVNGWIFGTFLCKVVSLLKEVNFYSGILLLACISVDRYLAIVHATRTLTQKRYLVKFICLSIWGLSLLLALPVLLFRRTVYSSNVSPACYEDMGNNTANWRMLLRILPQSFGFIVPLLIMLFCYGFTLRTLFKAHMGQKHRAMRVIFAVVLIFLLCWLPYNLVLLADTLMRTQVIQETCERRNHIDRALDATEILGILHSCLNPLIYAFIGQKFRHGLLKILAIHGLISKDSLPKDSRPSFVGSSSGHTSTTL
T4 sequence (P08588 whole entry): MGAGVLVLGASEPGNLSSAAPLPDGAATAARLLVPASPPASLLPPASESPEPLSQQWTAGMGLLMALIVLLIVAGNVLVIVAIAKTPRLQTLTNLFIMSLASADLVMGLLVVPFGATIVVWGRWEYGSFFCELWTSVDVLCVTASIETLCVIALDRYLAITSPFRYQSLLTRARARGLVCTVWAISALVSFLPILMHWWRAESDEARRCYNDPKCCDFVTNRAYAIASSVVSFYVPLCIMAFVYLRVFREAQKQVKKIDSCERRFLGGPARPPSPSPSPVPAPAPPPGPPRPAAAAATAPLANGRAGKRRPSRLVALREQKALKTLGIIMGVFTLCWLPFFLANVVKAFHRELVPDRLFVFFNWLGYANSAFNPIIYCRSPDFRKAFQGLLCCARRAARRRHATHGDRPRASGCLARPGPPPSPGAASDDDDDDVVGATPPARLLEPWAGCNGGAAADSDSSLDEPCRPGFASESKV
T7 sequence (P19801 20-751): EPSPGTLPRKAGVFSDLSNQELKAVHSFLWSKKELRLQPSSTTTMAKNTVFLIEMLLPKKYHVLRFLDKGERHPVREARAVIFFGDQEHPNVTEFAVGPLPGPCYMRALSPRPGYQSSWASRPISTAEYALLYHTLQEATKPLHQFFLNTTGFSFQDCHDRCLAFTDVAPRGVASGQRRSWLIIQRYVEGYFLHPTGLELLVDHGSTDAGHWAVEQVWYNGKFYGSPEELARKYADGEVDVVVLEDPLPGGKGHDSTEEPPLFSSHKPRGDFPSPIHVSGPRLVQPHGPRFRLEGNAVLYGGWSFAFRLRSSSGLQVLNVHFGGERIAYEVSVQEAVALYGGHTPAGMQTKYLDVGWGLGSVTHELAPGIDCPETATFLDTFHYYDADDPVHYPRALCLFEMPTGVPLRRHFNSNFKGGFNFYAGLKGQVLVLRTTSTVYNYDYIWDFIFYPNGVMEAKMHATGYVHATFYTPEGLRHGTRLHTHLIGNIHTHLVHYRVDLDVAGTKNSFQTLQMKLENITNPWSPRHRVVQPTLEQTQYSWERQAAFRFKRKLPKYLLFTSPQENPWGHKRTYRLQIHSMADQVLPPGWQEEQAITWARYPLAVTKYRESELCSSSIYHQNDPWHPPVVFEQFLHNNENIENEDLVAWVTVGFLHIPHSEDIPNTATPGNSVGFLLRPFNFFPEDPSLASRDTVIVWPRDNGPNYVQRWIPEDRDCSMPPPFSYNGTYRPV

By inhibition is commonly meant the change of the read-out against control, counted positive when it falls. As a reminder, the IC50 is the concentration at which inhibition is half-maximal. As to `COc1ccc(C/C(=C/F)CN)cc1.Cl` [Compound I-1-Z, (Z)-3-Fluoro-2-(4-methoxybenzyl)-allylamine hydrochloride], the inhibition at 10 µM in data set [1] was -8%; in data set [2] it was -5%; in data set [3] it was 16%; in [4], 5%; in [5], -9%; in data set [8] it was 1%. For the same molecule, the inhibition at 10 µM is 27% in data set [10]; 16% in data set [11]; -19% in data set [12]; -10% in data set [13]; -6% in data set [15]; 1% in data set [16]. Further, the inhibition at 10 µM in data set [17] was -5%. In addition, the “Mean Value, percent inhibition of control specific binding: α1 (non-selective)” value in data set [6] was 8%. In [7], the “Mean Value, percent inhibition of control specific binding: PDGF” value is reported as −14%. Also, the IC50 in [9] came to 92 µM. Besides, the “incidence of arthritis and clinical scores as compared to PBS” value in data set [14] (5 mg/kg p.o. day 0 to day 28) is “reduced both the incidence of arthritis and the clinical scores”. Further, the clinical efficacy entry in data set [14] (30 mg/kg p.o. day 0 to day 28) was “no clinical efficacy was observed”.
